Assay results as given in article PMC6691788, “Design and synthesis of phthalazine-based compounds as potent anticancer agents with potential antiangiogenic activity via VEGFR-2 inhibition” (Journal of Enzyme Inhibition and Medicinal Chemistry, 2019).

How the values were obtained:
[1] = test system: OVCAR-8; experiment: NCI 60 cell panel SRB screen; assay type: cell-based; settings: Homo sapiens; for activity at 10 µM: OVCAR-8, single dose 10 μM, read-out: percent cell growth promotion
[2] = test system: NCI-H23; experiment: NCI 60 cell panel SRB screen; assay type: cell-based; settings: Homo sapiens; for activity at 10 µM: NCI-H23, single dose 10 μM, read-out: percent cell growth promotion
[3] = test system: MDA-MB-435; experiment: NCI 60 cell panel SRB screen; assay type: cell-based; settings: Homo sapiens; for activity at 10 µM: MDA-MB-435, read-out: percent cell growth promotion
[4] = test system: A498; experiment: NCI 60 cell panel SRB screen; assay type: cell-based; settings: Homo sapiens; for activity at 10 µM: A498, single dose 10 μM, read-out: percent cell growth promotion
[5] = test system: OVCAR-4; experiment: NCI 60 cell panel SRB screen; assay type: cell-based; settings: Homo sapiens; for activity at 10 µM: OVCAR-4, single dose 10 μM, read-out: percent cell growth promotion
[6] = test system: NCI-H522; experiment: NCI 60 cell panel SRB screen; assay type: cell-based; settings: Homo sapiens; for activity at 10 µM: NCI-H522, single dose 10 μM, read-out: percent cell growth promotion
[7] = test system: COLO 205; experiment: NCI 60 cell panel SRB screen; assay type: cell-based; settings: Homo sapiens; for activity at 10 µM: COLO 205, single dose 10 μM, read-out: percent cell growth promotion
[8] = test system: SK-MEL-2; experiment: NCI 60 cell panel SRB screen; assay type: cell-based
[9] = test system: NCI-H460; experiment: NCI 60 cell panel SRB screen; assay type: cell-based; settings: Homo sapiens; for activity at 10 µM: NCI-H460, single dose 10 μM, read-out: percent cell growth promotion
[10] = test system: full NCI 60 cell panel; experiment: NCI 60 cell panel SRB screen, whole panel; assay type: cell-based, human; settings: Homo sapiens, 60 cell, NCI 5-log dose, full 60 cell panel; read-out: GI50 values, range over the tested cell lines
[11] = test system: SW-620; experiment: NCI 60 cell panel SRB screen; assay type: cell-based; settings: Homo sapiens; for activity at 10 µM: SW-620, single dose 10 μM, read-out: percent cell growth promotion
[12] = test system: HL-60(TB); experiment: NCI 60 cell panel SRB screen; assay type: cell-based; settings: Homo sapiens; for activity at 10 µM: single dose 10 μM, read-out: percent cell growth promotion
[13] = test system: SK-MEL-28; experiment: NCI 60 cell panel SRB screen; assay type: cell-based; settings: Homo sapiens; for activity at 10 µM: SK-MEL-28, read-out: percent cell growth promotion
[14] = test system: SF-539; experiment: NCI 60 cell panel SRB screen; assay type: cell-based, human
[15] = test system: IGROV1; experiment: NCI 60 cell panel SRB screen; assay type: cell-based; settings: Homo sapiens, IGROV-1; for activity at 10 µM: IGROV1, single dose 10 μM, read-out: percent cell growth promotion
[16] = test system: RXF 393; experiment: NCI 60 cell panel SRB screen; assay type: cell-based; settings: Homo sapiens; for activity at 10 µM: RXF 393, single dose 10 μM, read-out: percent cell growth promotion
[17] = test system: NCI/ADR-RES; experiment: NCI 60 cell panel SRB screen; assay type: cell-based; settings: Homo sapiens; for activity at 10 µM: single dose 10 μM, read-out: percent cell growth promotion
[18] = test system: 786-0; experiment: NCI 60 cell panel SRB screen; assay type: cell-based; settings: Homo sapiens; for activity at 10 µM: 786-0, single dose 10 μM, read-out: percent cell growth promotion
[19] = test system: EKVX; experiment: NCI 60 cell panel SRB screen; assay type: cell-based, human
[20] = test system: UO-31; experiment: NCI 60 cell panel SRB screen; assay type: cell-based; settings: Homo sapiens; for activity at 10 µM: UO-31, single dose 10 μM, read-out: percent cell growth promotion
[21] = 5 log dose, 48 h, read-out: LC50 (the source's name)
[22] = Homo sapiens, SF-539, 5 log dose

SMILES: O=C(Nc1ccc(Cl)cc1)Nc1ccc(Nc2nncc3ccccc23)cc1 [Compound 6b, 1–(4-Chlorophenyl)-3–(4-(phthalazin-1-ylamino)phenyl)urea]
- GI50 ([1]; OVCAR-8, 5 log dose): 3.12 µM
- IC (TGI) ([1]; OVCAR-8, 5 log dose): 12.4 µM
- CC50 ([1]; OVCAR-8, 5 log dose, 48 h, read-out: LC50 (the source's name)): > 100 µM
- activity at 10 µM [1]: 18.2%
- GI50 ([2]; NCI-H23, 5 log dose): 3.07 µM
- IC (TGI) ([2]; NCI-H23, 5 log dose): 14.4 µM
- CC50 ([2]; NCI-H23, 5 log dose, 48 h, read-out: LC50 (the source's name)): 71.8 µM
- activity at 10 µM [2]: 12.5%
- GI50 ([3]; MDA-MB-435): 2.14 µM
- IC (TGI) ([3]; MDA-MB-435, read-out: TGI): 9.42 µM
- activity at 10 µM [3]: 13.7%
- CC50 ([3]; MDA-MB-435, 5 log dose, 48 h, read-out: LC50 (the source's name)): 30.9 µM
- GI50 ([4]; A498, 5 log dose): 3.79 µM
- IC (TGI) ([4]; A498, 5 log dose): 18.8 µM
- CC50 ([4]; A498, 5 log dose, 48 h, read-out: LC50 (the source's name)): > 100 µM
- activity at 10 µM [4]: 24.5%
- GI50 ([5]; OVCAR-4, 5 log dose): 1.97 µM
- IC (TGI) ([5]; OVCAR-4, 5 log dose): 8.17 µM
- CC50 ([5]; OVCAR-4, 5 log dose, 48 h, read-out: LC50 (the source's name)): > 100 µM
- activity at 10 µM [5]: 11.1%
- GI50 ([6]; NCI-H522, 5 log dose): 1.32 µM
- IC (TGI) ([6]; NCI-H522, 5 log dose): 8.81 µM
- CC50 ([6]; NCI-H522, 5 log dose, 48 h, read-out: LC50 (the source's name)): 43.2 µM
- activity at 10 µM [6]: 11.9%
- GI50 ([7]; COLO 205, 5 log dose): 2.77 µM
- IC (TGI) ([7]; COLO 205, 5 log dose): 9.58 µM
- CC50 ([7]; COLO 205, 5 log dose, 48 h, read-out: LC50 (the source's name)): 34.6 µM
- activity at 10 µM [7]: 18.6%
- GI50 ([8]; Homo sapiens): 2.7 µM
- IC (TGI) ([8]; Homo sapiens, read-out: TGI): 7.7 µM
- CC50 ([8]; Homo sapiens, SK-MEL-2, 5 log dose, 48 h, read-out: LC50 (the source's name)): 44.8 µM
- GI50 ([9]; NCI-H460, 5 log dose): 2.91 µM
- IC (TGI) ([9]; NCI-H460, 5 log dose): 11.9 µM
- LC50 (concentration causing 50% cell kill) ([9]; NCI-H460, 5 log dose, 48 h): 56.8 µM
- activity at 10 µM [9]: 9.89%
- GI50 [10]: 0.15 to 8.41 µM
- GI50 ([11]; SW-620, 5 log dose): 3.16 µM
- IC (TGI) ([11]; SW-620, 5 log dose): 18.6 µM
- CC50 ([11]; SW-620, 5 log dose, 48 h, read-out: LC50 (the source's name)): 81.8 µM
- activity at 10 µM [11]: 27%
- GI50 ([12]; 5 log dose): 2.42 µM
- IC (TGI) ([12]; 5 log dose): 7 µM
- CC50 [12, 21]: > 100 µM
- activity at 10 µM [12]: 18.1%
- GI50 ([13]; SK-MEL-28): 3.04 µM
- IC (TGI) ([13]; SK-MEL-28, read-out: TGI): 12.8 µM
- activity at 10 µM [13]: 44.1%
- CC50 ([13]; SK-MEL-28, 5 log dose, 48 h, read-out: LC50 (the source's name)): 51.5 µM
- GI50 [14, 22]: 2.88 µM
- IC (TGI) [14, 22]: 11.5 µM
- CC50 ([14]; Homo sapiens, SF-539, 5 log dose, 48 h, read-out: LC50 (the source's name)): 36.6 µM
- GI50 ([15]; IGROV1, 5 log dose): 2.52 µM
- IC (TGI) ([15]; IGROV1, 5 log dose): 30.7 µM
- CC50 ([15]; IGROV1, 5 log dose, 48 h, read-out: LC50 (the source's name)): > 100 µM
- activity at 10 µM [15]: 39.7%
- GI50 ([16]; RXF 393, 5 log dose): 4.28 µM
- IC (TGI) ([16]; RXF 393, 5 log dose): 21.4 µM
- CC50 ([16]; RXF 393, 5 log dose, 48 h, read-out: LC50 (the source's name)): > 100 µM
- activity at 10 µM [16]: 65.7%
- GI50 ([17]; 5 log dose): 2.79 µM
- IC (TGI) ([17]; 5 log dose): 26.3 µM
- CC50 [17, 21]: > 100 µM
- activity at 10 µM [17]: 36.2%
- GI50 ([18]; 786-0, 5 log dose): 3.09 µM
- IC (TGI) ([18]; 786-0, 5 log dose): 25.2 µM
- CC50 ([18]; 786-0, 5 log dose, 48 h, read-out: LC50 (the source's name)): > 100 µM
- activity at 10 µM [18]: 50.4%
- GI50 ([19]; Homo sapiens, 5 log dose): 2.95 µM
- IC (TGI) ([19]; Homo sapiens, 5 log dose): 25.3 µM
- LC50 ([19]; Homo sapiens, 5 log dose, 48 h): > 100 µM
- GI50 ([20]; UO-31, 5 log dose): 1.9 µM
- IC (TGI) ([20]; UO-31, 5 log dose): 15.8 µM
- CC50 ([20]; UO-31, 5 log dose, 48 h, read-out: LC50 (the source's name)): > 100 µM
- activity at 10 µM [20]: 19%

SMILES: O=C(Nc1ccc(Cl)cc1)Nc1ccc(Oc2nnc(Cl)c3ccccc23)cc1 [Compound 13b, 1–(4-Chlorophenyl)-3–(4-(4-chlorophthalazin-1-yloxy)phenyl)urea]
- activity at 10 µM [1]: 86%
- activity at 10 µM [2]: 89%
- activity at 10 µM [3]: 93.9%
- activity at 10 µM [4]: 103%
- activity at 10 µM [5]: 72.1%
- activity at 10 µM [6]: 52.5%
- activity at 10 µM [7]: 106%
- percent cell growth promotion ([8]; SK-MEL-2, single dose 10 μM): 93.58%
- activity at 10 µM [9]: 98.1%
- activity at 10 µM [11]: 106%
- activity at 10 µM [12]: 67.3%
- activity at 10 µM [13]: 106%
- percent cell growth promotion ([14]; SF-539, single dose 10 μM): 84.86%
- activity at 10 µM [15]: 79.2%
- activity at 10 µM [16]: 99.7%
- activity at 10 µM [17]: 83.6%
- activity at 10 µM [18]: 114%
- percent cell growth promotion ([19]; single dose 10 μM): 62.48%
- activity at 10 µM [20]: 53.9%
